Laboratory results: ChEMBL document CHEMBL1250518, “Nonsteroidal dissociated glucocorticoid agonists containing azaindoles as steroid A-ring mimetics” (J Med Chem, 2010)
Active and inactive are the calls of the source. No cut-off for these calls is given here.

Tests used:
Glucocorticoid receptor [1] = target: T1, Glucocorticoid receptor (Homo sapiens, UniProt P04150); test: Binding affinity to glucocorticoid receptor expressed in baculovirus-infected insect cells using tetramethylrhodamine labeled Dexamethasone by fluorescence polarization microplate assay
T1 sequence (P04150 whole entry): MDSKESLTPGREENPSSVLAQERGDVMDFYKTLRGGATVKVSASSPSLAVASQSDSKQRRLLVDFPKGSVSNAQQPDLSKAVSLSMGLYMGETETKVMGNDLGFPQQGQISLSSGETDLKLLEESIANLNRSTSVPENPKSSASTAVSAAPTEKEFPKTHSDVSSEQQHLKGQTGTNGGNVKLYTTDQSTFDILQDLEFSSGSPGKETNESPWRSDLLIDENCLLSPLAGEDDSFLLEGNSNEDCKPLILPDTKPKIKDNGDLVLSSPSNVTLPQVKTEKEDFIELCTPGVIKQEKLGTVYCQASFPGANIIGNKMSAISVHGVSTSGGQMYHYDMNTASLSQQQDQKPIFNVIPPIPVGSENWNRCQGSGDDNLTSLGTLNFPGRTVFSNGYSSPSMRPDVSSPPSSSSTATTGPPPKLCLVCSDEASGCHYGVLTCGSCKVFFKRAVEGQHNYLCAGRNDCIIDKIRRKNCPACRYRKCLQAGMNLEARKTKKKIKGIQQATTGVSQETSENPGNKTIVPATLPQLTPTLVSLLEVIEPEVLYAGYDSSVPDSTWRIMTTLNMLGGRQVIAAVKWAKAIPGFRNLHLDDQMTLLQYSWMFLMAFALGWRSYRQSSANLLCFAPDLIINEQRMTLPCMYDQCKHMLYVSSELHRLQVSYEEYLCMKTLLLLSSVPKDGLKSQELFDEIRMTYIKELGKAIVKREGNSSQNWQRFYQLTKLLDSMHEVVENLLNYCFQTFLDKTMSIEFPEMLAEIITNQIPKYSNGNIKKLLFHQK

Progesterone receptor = target: T2, Progesterone receptor (Homo sapiens, UniProt P06401); test: Binding affinity to progesterone receptor expressed in baculovirus-infected insect cells using tetramethylrhodamine labeled RU-486 by fluorescence polarization microplate assay
T2 sequence (P06401 whole entry): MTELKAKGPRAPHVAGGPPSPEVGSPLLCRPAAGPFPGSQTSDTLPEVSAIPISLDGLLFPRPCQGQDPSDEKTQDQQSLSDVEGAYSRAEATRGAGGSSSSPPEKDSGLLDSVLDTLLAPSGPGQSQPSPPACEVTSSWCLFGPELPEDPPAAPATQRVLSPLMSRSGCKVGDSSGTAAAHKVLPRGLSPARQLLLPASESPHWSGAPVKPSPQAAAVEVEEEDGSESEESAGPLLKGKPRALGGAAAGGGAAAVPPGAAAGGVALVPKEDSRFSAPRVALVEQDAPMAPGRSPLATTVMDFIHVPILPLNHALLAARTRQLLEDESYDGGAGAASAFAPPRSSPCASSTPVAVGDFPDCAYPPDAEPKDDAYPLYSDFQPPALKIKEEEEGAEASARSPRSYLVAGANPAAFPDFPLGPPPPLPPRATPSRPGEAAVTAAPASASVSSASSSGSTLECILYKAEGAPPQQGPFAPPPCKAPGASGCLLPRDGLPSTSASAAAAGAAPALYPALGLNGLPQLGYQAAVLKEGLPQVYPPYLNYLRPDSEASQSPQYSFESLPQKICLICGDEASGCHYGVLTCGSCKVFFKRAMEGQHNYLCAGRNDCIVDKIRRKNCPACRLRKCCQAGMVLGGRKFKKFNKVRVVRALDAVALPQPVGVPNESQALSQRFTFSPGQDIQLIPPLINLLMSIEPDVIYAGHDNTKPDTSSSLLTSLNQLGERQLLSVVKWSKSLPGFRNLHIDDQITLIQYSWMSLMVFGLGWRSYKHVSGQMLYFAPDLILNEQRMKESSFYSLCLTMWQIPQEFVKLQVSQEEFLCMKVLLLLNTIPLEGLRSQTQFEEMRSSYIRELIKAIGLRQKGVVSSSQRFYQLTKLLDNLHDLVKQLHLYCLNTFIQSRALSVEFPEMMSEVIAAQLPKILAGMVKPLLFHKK

[2] = target: T3, Mineralocorticoid receptor (Homo sapiens, UniProt P08235); test: Binding affinity to mineralocorticoid receptor expressed in baculovirus-infected insect cells using tetramethylrhodamine labeled Dexamethasone by fluorescence polarization microplate assay
T3 sequence (P08235 whole entry): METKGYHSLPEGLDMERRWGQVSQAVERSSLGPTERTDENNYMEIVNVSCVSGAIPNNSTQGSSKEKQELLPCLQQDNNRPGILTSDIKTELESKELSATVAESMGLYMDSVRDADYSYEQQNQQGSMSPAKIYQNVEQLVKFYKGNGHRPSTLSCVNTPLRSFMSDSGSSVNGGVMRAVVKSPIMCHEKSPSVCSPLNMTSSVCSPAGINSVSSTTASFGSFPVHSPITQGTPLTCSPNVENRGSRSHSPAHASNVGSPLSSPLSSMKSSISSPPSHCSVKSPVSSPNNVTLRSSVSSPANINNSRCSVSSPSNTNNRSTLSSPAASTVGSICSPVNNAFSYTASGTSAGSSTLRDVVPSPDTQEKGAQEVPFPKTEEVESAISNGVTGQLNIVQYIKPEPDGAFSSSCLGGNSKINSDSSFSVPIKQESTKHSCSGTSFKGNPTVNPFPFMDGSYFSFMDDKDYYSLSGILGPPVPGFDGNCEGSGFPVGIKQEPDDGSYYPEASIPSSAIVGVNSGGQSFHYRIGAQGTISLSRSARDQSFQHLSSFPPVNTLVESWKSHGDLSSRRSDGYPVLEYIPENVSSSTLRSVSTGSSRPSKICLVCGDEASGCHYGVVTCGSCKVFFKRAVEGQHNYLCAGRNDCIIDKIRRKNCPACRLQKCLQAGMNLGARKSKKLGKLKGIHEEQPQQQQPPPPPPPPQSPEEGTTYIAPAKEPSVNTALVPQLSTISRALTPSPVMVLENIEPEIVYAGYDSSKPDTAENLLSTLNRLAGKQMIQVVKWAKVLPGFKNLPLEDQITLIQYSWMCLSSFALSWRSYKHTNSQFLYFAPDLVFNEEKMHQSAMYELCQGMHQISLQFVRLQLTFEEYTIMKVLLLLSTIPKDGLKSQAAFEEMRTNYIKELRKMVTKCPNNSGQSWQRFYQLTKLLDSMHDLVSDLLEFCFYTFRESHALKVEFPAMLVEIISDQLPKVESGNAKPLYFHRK

Glucocorticoid receptor [3] = target: T1, Glucocorticoid receptor; test: Transrepression activity at glucocorticoid receptor in HFF assessed as inhibition of IL-1-induced IL-6 production after 18 to 24 hrs by ELISA; format: cell-based
Glucocorticoid receptor [4] = target: T1, Glucocorticoid receptor; test: Transactivation activity at glucocorticoid receptor in human HeLa cells transfected with luciferase gene linked to MMTV promoter by luciferase assay; format: cell-based
Glucocorticoid receptor [5] = target: T1, Glucocorticoid receptor; test: Transactivation activity at glucocorticoid receptor in HFF assessed as induction of aromatase activity after 18 to 24 hrs by ELISA; format: cell-based
[6] = Clearance in Sprague-Dawley rat at 5 mg/kg, iv; format: ADME, organism-based; set-up: dose 5 mg/kg, route intravenous; details: in vivo
[7] = Volume of distribution at steady state in Sprague-Dawley rat at 5 mg/kg, iv; format: ADME, organism-based; set-up: dose 5 mg/kg, route intravenous; details: in vivo, read-out: Vdss
[8] = Half life in Sprague-Dawley rat at 5 mg/kg, iv; format: ADME, organism-based; set-up: dose 5 mg/kg, route intravenous; details: in vivo
[9] = Cmax in Sprague-Dawley rat at 30 mg/kg, po; format: ADME, organism-based; set-up: dose 30 mg/kg, route oral; details: in vivo
[10] = Tmax in Sprague-Dawley rat at 30 mg/kg, po; format: ADME, organism-based; set-up: dose 30 mg/kg, route oral; details: in vivo
[11] = AUC (infinity) in Sprague-Dawley rat at 30 mg/kg, po; format: ADME, organism-based, Plasma; set-up: time infinity, dose 30 mg/kg, route oral; details: Sprague-Dawley, plasma
[12] = Oral bioavailability in Sprague-Dawley rat at 30 mg/kg; format: ADME, organism-based; details: Sprague-Dawley, in vivo
[13] = Clearance in Sprague-Dawley rat at 2 mg/kg, iv; format: ADME, organism-based; set-up: dose 2 mg/kg, route intravenous; details: in vivo
[14] = Volume of distribution at steady state in Sprague-Dawley rat at 2 mg/kg, iv; format: ADME, organism-based; set-up: dose 2 mg/kg, route intravenous; details: in vivo, read-out: Vdss
[15] = Half life in Sprague-Dawley rat at 2 mg/kg, iv; format: ADME, organism-based; set-up: dose 2 mg/kg, route intravenous; details: in vivo
Mus musculus [16] = test: Antiinflammatory activity in po dosed BALB/c mouse assessed as reduction of LPS-induced plasma TNFalpha level administered 1 hr before LPS challenge by ELISA; format: functional
Mus musculus [17] = test: Antiinflammatory effect in collagen and Freund's complete adjuvant-induced B10.RIII mouse arthritis model assessed as inhibition of disease progression administered as po qd for 5 weeks; format: functional; details: 840 h
Mus musculus [18] = test: Antiinflammatory effect in collagen and Freund's complete adjuvant-induced B10.RIII mouse arthritis model assessed as inhibition of disease progression at 100 mg/kg, po qd for 5 weeks; format: functional, organism-based; set-up: dose 100 mg/kg
Mus musculus [19] = test: Toxicity in B10.RIII mouse assessed as increase of body fat content at 100 mg/kg, po qd for 5 weeks; format: organism-based; set-up: dose 100 mg/kg, route oral; details: in vivo, 840 h
Mus musculus [20] = test: Toxicity in B10.RIII mouse assessed as increase of serum insulin level at 100 mg/kg, po qd for 5 weeks; format: organism-based; set-up: dose 100 mg/kg, route oral; details: in vivo, 840 h
Mus musculus [21] = test: Antiinflammatory effect in collagen and Freund's complete adjuvant-induced B10.RIII mouse arthritis model assessed as inhibition of disease progression at 30 mg/kg, po qd for 5 weeks; format: functional; details: 840 h
Mus musculus [22] = test: Toxicity in collagen and Freund's complete adjuvant-induced B10.RIII mouse arthritis model assessed as increase of body fat content at 30 mg/kg, po qd for 5 weeks; format: organism-based; set-up: dose 30 mg/kg, route oral; details: in vivo, 840 h
Mus musculus [23] = test: Toxicity in collagen and Freund's complete adjuvant-induced B10.RIII mouse arthritis model assessed as increase of serum insulin level at 30 mg/kg, po qd for 5 weeks; format: organism-based; set-up: dose 30 mg/kg, route oral; details: in vivo, 840 h
Mus musculus [24] = test: Toxicity in collagen and Freund's complete adjuvant-induced B10.RIII mouse arthritis model assessed as increase of triglyceride level at 30 mg/kg, po qd for 5 weeks; format: organism-based; set-up: dose 30 mg/kg, route oral; details: in vivo, 840 h
Mus musculus [25] = test: Toxicity in collagen and Freund's complete adjuvant-induced B10.RIII mouse arthritis model assessed as increase of free fatty acids level at 30 mg/kg, po qd for 5 weeks; format: organism-based; set-up: dose 30 mg/kg, route oral; details: in vivo, 840 h
Mus musculus [26] = test: Toxicity in B10.RIII mouse assessed as increase of body fat content at 30 mg/kg, po qd for 5 weeks; format: organism-based; set-up: dose 30 mg/kg, route oral; details: in vivo, 840 h
Mus musculus [27] = test: Toxicity in B10.RIII mouse assessed as increase of triglyceride level at 30 mg/kg, po qd for 5 weeks; format: organism-based; set-up: dose 30 mg/kg, route oral; details: in vivo, 840 h
Mus musculus [28] = test: Toxicity in B10.RIII mouse assessed as increase of serum insulin level at 30 mg/kg, po qd for 5 weeks; format: organism-based; set-up: dose 30 mg/kg, route oral; details: in vivo, 840 h

SMILES | IC50 (Glucocorticoid receptor [1]) [nM] | IC50 (Progesterone receptor) [nM] | IC50 [2] [nM] | IC50 (Glucocorticoid receptor [3]) [nM] | IC50 (Glucocorticoid receptor [4]) [nM] | EC50 (Glucocorticoid receptor [5]) [nM] | Cmax [9] [ng/mL] | AUC(0-inf) [11] [ng·h/mL] | bioavailability [12] [%] | ED50 (Mus musculus [17]) [mg/kg] | further results
COc1ccc(F)cc1C(C)(C)C[C@@](O)(Cc1cc2ccncc2[nH]1)C(F)(F)F | 1.4 | 1150 | 380 | 6 | 20 | 10 | 427 | 1740 | 21 |  | clearance [6]: 61 mL/min/kg; Vd [7]: 8.7 L/kg; half-life [8]: 1.7 h; Tmax [10]: 2 h
COc1ccc(-c2cncnc2)cc1C(C)(C)C[C@@](O)(Cc1cc2ccncc2[nH]1)C(F)(F)F | 8 | > 2000 | > 2000 | 20 | > 2000 | > 2000 | 422 | 5930 | 97 | 30 | clearance [13]: 83 mL/min/kg; Vd [14]: 6.6 L/kg; half-life [15]: 1 h; ED50 (Mus musculus [16]): < 1 mg/kg; Activity (Mus musculus [18]): Active; Activity (Mus musculus [19]): Non-toxic; Activity (Mus musculus [20]): Non-toxic
C[C@]12C=CC(=O)C=C1CC[C@@H]1[C@@H]2[C@@H](O)C[C@@]2(C)[C@H]1CC[C@]2(O)C(=O)CO [PREDNISOLONE] |  |  | 44 |  |  |  |  |  |  | 10 | inhibition in vivo at 30 mg/kg (Mus musculus [21]): 77%; Activity (Mus musculus [22]): Non-toxic; Activity (Mus musculus [23]): Non-toxic; Activity (Mus musculus [24]): Toxic; Activity (Mus musculus [25]): Non-toxic; Activity (Mus musculus [26]): Toxic; Activity (Mus musculus [27]): Toxic; Activity (Mus musculus [28]): Toxic
